45 compounds from patent publication US7964624B1, “Inhibitors of serine proteases” (priority 2005, dated 2011) can be followed below.

For the experiment, the target named is T1, HCV NS3 protease domain (Hepatitis C virus genotype 1b, UniProt Q9WMX2).
T1 construct: The first 181 amino acids of NS3 (residues 1027-1207 of the viral polyprotein); hexa-histidine (C); made in house; host or cells: E. coli BL21/DE3 pLysS
T1 sequence (Q9WMX2 1027-1207, other chains not shown): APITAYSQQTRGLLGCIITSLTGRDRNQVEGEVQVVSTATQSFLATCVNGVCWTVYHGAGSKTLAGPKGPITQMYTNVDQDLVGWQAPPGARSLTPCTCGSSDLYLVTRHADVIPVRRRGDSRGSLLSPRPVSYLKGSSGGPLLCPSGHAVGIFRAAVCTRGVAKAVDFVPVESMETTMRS
The experiment can be described thus: biochemical. To be noted: Enzyme Assay 1 (HCV NS3 Protease Domain Peptide Cleavage Assay) activity, apparent Ki class.
For `CCC[C@H](NC(=O)[C@@H]1C[C@]2(CC(c3cccc(Cl)c3)=NO2)CN1C(=O)[C@@H](NC(=O)Nc1ccc(N2C(=O)C=CC2=O)cc1)C(C)(C)C)C(=O)C(=O)NC1CC1` [Compound 128], the Ki fell in the range of 0.1 to 0.5 µM.

Regarding `CCC[C@H](NC(=O)[C@@H]1C[C@]2(CC(c3cccc(Cl)c3)=NO2)CN1C(=O)[C@@H](NC(=O)c1cn(C(C)C)c2ccccc2c1=O)C(C)(C)C)C(=O)C(=O)NC1CC1` [Compound 135], the Ki was > 0.5 µM.

For `CCC[C@H](NC(=O)[C@@H]1C[C@]2(CC(c3cccc(Cl)c3)=NO2)CN1C(=O)[C@@H](NC(=O)[C@](C)(O)c1ccccc1)C(C)(C)C)C(=O)C(=O)NC1CC1` [Compound 139], the Ki was > 0.5 µM.

Regarding `CCC[C@H](NC(=O)[C@@H]1C[C@]2(CC(c3cccc(Cl)c3)=NO2)CN1C(=O)[C@@H](NC(=O)CC1CCCCC1)C(C)(C)C)C(=O)C(=O)NCC` [Compound 140], the Ki was in the range of 0.1 to 0.5 µM.

On to `C=C[C@@H]1C[C@]1(NC(=O)[C@@H]1C[C@]2(CC(c3cccc(Cl)c3)=NO2)CN1C(=O)[C@@H](NC(=O)CC1CCCCC1)C(C)(C)C)C(=O)O` [Compound 144], for which the Ki is > 0.5 µM.

With `CCC[C@H](NC(=O)[C@@H]1C[C@]2(CC(C(=O)NCC)=NO2)CN1C(=O)[C@@H](NC(=O)O[C@H]1CCOC1)C(C)(C)C)C(=O)C(=O)NC1CC1` [Compound 146], the Ki was > 0.5 µM.

As for `CCC[C@H](NC(=O)[C@@H]1C[C@]2(CC(c3ccc4c(c3)CCC(C)(C)O4)=NO2)CN1C(=O)[C@@H](NC(=O)O[C@H]1CCOC1)C(C)(C)C)C(=O)C(=O)NC1CC1` [Compound 150], the Ki was in the range of 0.1 to 0.5 µM.

Take `C=CCOC(=O)N[C@H](C(=O)N1C[C@@]2(CC(c3ccccc3)=NO2)C[C@H]1C(=O)N[C@@H](CCC)C(=O)C(=O)NC1CC1)C(C)(C)C` [Compound 151]: the Ki was 0.1 to 0.5 µM.

Consider `CCC[C@H](NC(=O)[C@@H]1C[C@]2(CC(c3cccc(Cl)c3)=NO2)CN1C(=O)[C@@H](NC(=O)OCC1CCOC1)C(C)(C)C)C(=O)C(=O)NC1CC1` (stereo partly drawn) [Compound 152], for which the Ki was in the range of 0.1 to 0.5 µM.

With `C=CCOC(=O)N[C@H](C(=O)N1C[C@@]2(CC(c3ccc(F)cc3)=NO2)C[C@H]1C(=O)N[C@@H](CCC)C(=O)C(=O)NC1CC1)C(C)(C)C` [Compound 154], the Ki fell in the range of 0.1 to 0.5 µM.

On to `CCC[C@H](NC(=O)[C@@H]1C[C@]2(CC(c3cccc(Cl)c3)=NO2)CN1C(=O)[C@@H](NC(=O)Cc1cc(F)ccc1C)C(C)(C)C)C(=O)C(=O)NC1CC1` [Compound 155], for which the Ki was > 0.5 µM.

As to `CCC[C@H](NC(=O)[C@@H]1C[C@]2(CC(c3cccc(Cl)c3)=NO2)CN1C(=O)[C@@H](NC(=O)NCC(C)C)C(C)(C)C)C(=O)C(=O)NC1CC1` [Compound 156], the Ki was < 0.1 µM.

With `CCC[C@H](NC(=O)[C@@H]1C[C@]2(CC(c3cccc(Cl)c3)=NO2)CN1C(=O)c1cc2cc(OC)c(OC)cc2[nH]1)C(=O)C(=O)NC1CC1` [Compound 157], the Ki is > 0.5 µM.

Regarding `CCC[C@H](NC(=O)[C@@H]1C[C@]2(CC(c3cccc(Cl)c3)=NO2)CN1C(=O)[C@@H](NC(=O)OCCc1ccsc1)C(C)(C)C)C(=O)C(=O)NC1CC1` [Compound 159], the Ki fell in the range of 0.1 to 0.5 µM.

With `CCC[C@H](NC(=O)[C@@H]1C[C@]2(CC(c3cccc(Cl)c3)=NO2)CN1C(=O)[C@@H](NC(=O)c1cc(NC(C)=O)sc1C(C)=O)C(C)(C)C)C(=O)C(=O)NC1CC1` [Compound 161], the Ki is > 0.5 µM.

Turning to `CCC[C@H](NC(=O)[C@@H]1C[C@]2(CC(c3ccccc3Cl)=NO2)CN1C(=O)[C@@H](NC(=O)OCc1ccccc1)C(C)(C)C)C(=O)C(=O)NC1CC1` [Compound 164], the Ki was > 0.5 µM.

With `CCC[C@H](NC(=O)[C@@H]1C[C@]2(CC(c3ccc(OC)cc3OC)=NO2)CN1C(=O)[C@@H](NC(=O)CC1CCCCC1)C(C)(C)C)C(=O)C(=O)NC1CC1` [Compound 166], the Ki was 0.1 to 0.5 µM.

As to `CCC[C@H](NC(=O)[C@@H]1C[C@]2(CC(c3cccc(Cl)c3)=NO2)CN1C(=O)[C@@H](NC(=O)OCc1cccnc1C)C(C)(C)C)C(=O)C(=O)NC1CC1` [Compound 167], the Ki lay in the range of 0.1 to 0.5 µM.

Regarding `CCC[C@H](NC(=O)[C@@H]1C[C@]2(CC(c3cccc(Cl)c3)=NO2)CN1C(=O)[C@@H](NC(=O)OCc1cccc(C)c1)C(C)(C)C)C(=O)C(=O)NC1CC1` [Compound 174], the Ki was in the range of 0.1 to 0.5 µM.

On to `CCC[C@H](NC(=O)[C@@H]1C[C@]2(CC(c3ccc(Br)o3)=NO2)CN1C(=O)[C@@H](NC(=O)CC1CCCCC1)C(C)(C)C)C(=O)C(=O)NC1CC1` [Compound 179], for which the Ki lay in the range of 0.1 to 0.5 µM.

Consider `CCC[C@H](NC(=O)[C@@H]1C[C@]2(CC(C)=NO2)CN1C(=O)[C@@H](NC(C)=O)C(C)(C)C)C(=O)C(=O)NC1CC1` [Compound 180], for which the Ki was > 0.5 µM.

Take `CCC[C@H](NC(=O)[C@@H]1C[C@]2(CC(c3cccc(Cl)c3)=NO2)CN1C(=O)[C@@H](NC(=O)[C@H](OC)c1ccccc1)C(C)(C)C)C(=O)C(=O)NC1CC1` [Compound 187]: the Ki is > 0.5 µM.

Consider `CCC[C@H](NC(=O)[C@@H]1C[C@]2(CC(c3cccc(Cl)c3)=NO2)CN1C(=O)[C@@H](NC(=O)CCc1cccc(OC)c1)C(C)(C)C)C(=O)C(=O)NC1CC1` [Compound 189], for which the Ki is > 0.5 µM.

Consider `CCC[C@H](NC(=O)[C@@H]1C[C@]2(CC(c3cc(C)c(OC)c(C)c3)=NO2)CN1C(=O)[C@@H](NC(=O)O[C@H]1CCOC1)C(C)(C)C)C(=O)C(=O)NC1CC1` [Compound 191], for which the Ki is > 0.5 µM.

Take `CCC[C@H](NC(=O)[C@@H]1C[C@]2(CC(c3cccc(Cl)c3)=NO2)CN1C(=O)[C@@H](NC(=O)OC(C)C)C(C)(C)C)C(=O)C(=O)NC1CC1` [Compound 193]: the Ki lay in the range of 0.1 to 0.5 µM.

For `CCCC(NC(=O)[C@@H]1C[C@]2(CC(c3ccc(OC)c(OC)c3)=NO2)CN1C(=O)[C@@H](NC(=O)O[C@H]1CCOC1)C(C)(C)C)C(=O)C(=O)NC1CC1` (stereo partly drawn) [Compound 196], the Ki is 0.1 to 0.5 µM.

Take `CCC[C@H](NC(=O)[C@@H]1C[C@]2(CC(c3cccc(Cl)c3)=NO2)CN1C(=O)[C@@H](NC(=O)Oc1ccc2c(c1)OCO2)C(C)(C)C)C(=O)C(=O)NC1CC1` [Compound 197]: the Ki is 0.1 to 0.5 µM.

For `CCC[C@H](NC(=O)[C@@H]1C[C@]2(CC(c3c4ccccc4cc4ccccc34)=NO2)CN1C(=O)[C@@H](NC(=O)OCc1ccccc1)C(C)(C)C)C(=O)C(=O)NC1CC1` [Compound 199], the Ki was > 0.5 µM.

For `CCC[C@H](NC(=O)[C@@H]1C[C@]2(CC(c3ccccc3)=NO2)CN1C(=O)[C@@H](NC(=O)O[C@H]1CCOC1)C(C)(C)C)C(=O)C(=O)NC1CC1` [Compound 202], the Ki was > 0.5 µM.

Consider `CCC[C@H](NC(=O)[C@@H]1C[C@]2(CC(c3cccc(Cl)c3)=NO2)CN1C(=O)[C@@H](NC(=O)OCc1cc(F)cc(F)c1)C(C)(C)C)C(=O)C(=O)NC1CC1` [Compound 203], for which the Ki is 0.1 to 0.5 µM.

Regarding `CCC[C@H](NC(=O)[C@@H]1C[C@]2(CC(c3cccc(Cl)c3)=NO2)CN1C(=O)CNC(=O)NCc1ccccc1)C(=O)C(=O)NC1CC1` [Compound 205], the Ki is > 0.5 µM.

In the case of `CCC[C@H](NC(=O)[C@@H]1C[C@]2(CC(c3cccc(Cl)c3)=NO2)CN1C(=O)CNC(=O)OCC)C(=O)C(=O)NC1CC1` [Compound 207], the Ki is > 0.5 µM.

As for `CCC[C@H](NC(=O)[C@@H]1C[C@]2(CC(c3cccc(Cl)c3)=NO2)CN1C(=O)[C@@H](NC(=O)OCc1cccc(F)c1)C(C)(C)C)C(=O)C(=O)NC1CC1` [Compound 209], the Ki was in the range of 0.1 to 0.5 µM.

On to `CCC[C@H](NC(=O)[C@@H]1C[C@]2(CC(c3cc(Cl)c(OC)cc3OC)=NO2)CN1C(=O)OCc1ccccc1Cl)C(=O)C(=O)NC1CC1` [Compound 210], for which the Ki is > 0.5 µM.

Take `CCC[C@H](NC(=O)[C@@H]1C[C@]2(CC(c3cccc(Cl)c3)=NO2)CN1C(=O)[C@@H](Nc1cccc(OC)c1)C(C)(C)C)C(=O)C(=O)NC1CC1` [Compound 214]: the Ki was > 0.5 µM.

Regarding `CCC[C@H](NC(=O)[C@@H]1C[C@]2(CC(c3cc(F)c(F)c(F)c3)=NO2)CN1C(=O)[C@@H](NC(=O)O[C@H]1CCOC1)C(C)(C)C)C(=O)C(=O)NC1CC1` [Compound 215], the Ki lay in the range of 0.1 to 0.5 µM.

As to `CCC[C@H](NC(=O)[C@@H]1C[C@]2(CC(c3cccc(Cl)c3)=NO2)CN1C(=O)[C@@H](NC(=O)C1CC(=O)N(Cc2cccs2)C1)C(C)(C)C)C(=O)C(=O)NC1CC1` (stereo partly drawn) [Compound 216], the Ki is > 0.5 µM.

Regarding `CC(C)(C)[C@H](NC(=O)CC1CCCCC1)C(=O)N1C[C@@]2(CC(c3cccc(Cl)c3)=NO2)C[C@H]1C(=O)NC(CC1CCC1)C(=O)C(N)=O` (stereo partly drawn) [Compound 217], the Ki was < 0.1 µM.

With `CCC[C@H](NC(=O)[C@@H]1C[C@]2(CC(c3cc(C)c(OC)c(C)c3)=NO2)CN1C(=O)[C@@H](NC(=O)O[C@H]1CCOC1)C(C)(C)C)C(=O)C(=O)NC1CC1` [Compound 224], the Ki fell in the range of 0.1 to 0.5 µM.

In the case of `CCC[C@H](NC(=O)[C@@H]1C[C@]2(CC(c3cccc(Cl)c3)=NO2)CN1C(=O)[C@@H](NC(=O)CCC1CCCCC1)C(C)(C)C)C(=O)C(=O)NC1CC1` [Compound 226], the Ki was 0.1 to 0.5 µM.

As for `CCC[C@H](NC(=O)[C@@H]1C[C@]2(CC(c3ccccc3)=NO2)CN1C(=O)[C@@H](NC(C)=O)C(C)(C)C)C(=O)C(=O)NC1CC1` [Compound 228], the Ki is > 0.5 µM.

Turning to `CCC[C@H](NC(=O)[C@@H]1C[C@]2(CC(CCC(=O)OC)=NO2)CN1C(=O)[C@@H](NC(=O)O[C@H]1CCOC1)C(C)(C)C)C(=O)C(=O)NC1CC1` [Compound 229], the Ki was > 0.5 µM.

For `CCC[C@H](NC(=O)[C@@H]1C[C@]2(CC(c3c(C)oc4ccccc34)=NO2)CN1C(=O)[C@@H](NC(=O)CC1CCCCC1)C(C)(C)C)C(=O)C(=O)NC1CC1` [Compound 230], the Ki lay within 0.1 to 0.5 µM.

As for `CNC(=O)C(=O)C(CC1CCC1)NC(=O)[C@@H]1C[C@]2(CC(c3cccc(Cl)c3)=NO2)CN1C(=O)[C@@H](NC(=O)CC1CCCCC1)C(C)(C)C` (stereo partly drawn) [Compound 231], the Ki is 0.1 to 0.5 µM.

Take `CCC[C@H](NC(=O)[C@@H]1C[C@]2(CC(c3cc(F)cc(Cl)c3)=NO2)CN1C(=O)[C@@H](NC(=O)CC1CCOCC1)C(C)(C)C)C(=O)C(=O)NC1CC1` [Compound 234]: the Ki fell in the range of 0.1 to 0.5 µM.
